Results reported in patent publication US11873298B2, “Compounds and uses thereof” (JANSSEN PHARMACEUTICA NV, priority 2017, dated 2024).

Key:
Type in all cases: cell-based
SCD5 = molecular target: T1, SCD5 (Homo sapiens, UniProt Q86SK9); experiment: Growth inhibition of humanized yeast strain expressing SCD5 as sole desaturase; details: humanized yeast strain expressing SCD5
T1 construct: host or cells: S. cerevisiae ole1Δ strain (W303 pdr1Δ pdr3Δ background), plasmid pRS316 with TDH3 promoter and CYC1 terminator
T1 sequence (Q86SK9 1-330): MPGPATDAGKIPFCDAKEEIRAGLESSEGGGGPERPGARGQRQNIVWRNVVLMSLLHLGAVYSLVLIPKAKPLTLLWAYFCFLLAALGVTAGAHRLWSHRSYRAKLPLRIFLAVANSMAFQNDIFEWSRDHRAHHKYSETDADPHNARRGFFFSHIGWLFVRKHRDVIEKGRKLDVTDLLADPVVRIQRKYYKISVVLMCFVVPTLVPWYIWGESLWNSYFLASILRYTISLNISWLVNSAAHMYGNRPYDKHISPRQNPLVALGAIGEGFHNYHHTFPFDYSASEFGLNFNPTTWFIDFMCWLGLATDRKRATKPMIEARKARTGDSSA
How it was run: (§1)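 OD600 growth read-out. ole1Δ yeast, pdr1Δ pdr3Δ, with Ole1/SCD1/SCD5 on a plasmid; SX-Ura media throughout; 2× cell density 0.02 in CSM-Galactose; DMSO compound dilutions; humidified 30° C.; Ole1 stopped at 24 h, SCD1/SCD5 at 40 h.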

SCD1 = molecular target: T2, SCD1 (Homo sapiens, UniProt O00767); experiment: Growth inhibition of humanized yeast strain expressing SCD1 as sole desaturase; details: humanized yeast strain expressing SCD1
T2 construct: host or cells: S. cerevisiae ole1Δ strain (W303 pdr1Δ pdr3Δ background), plasmid pRS316 with TDH3 promoter and CYC1 terminator
T2 sequence (O00767 1-359): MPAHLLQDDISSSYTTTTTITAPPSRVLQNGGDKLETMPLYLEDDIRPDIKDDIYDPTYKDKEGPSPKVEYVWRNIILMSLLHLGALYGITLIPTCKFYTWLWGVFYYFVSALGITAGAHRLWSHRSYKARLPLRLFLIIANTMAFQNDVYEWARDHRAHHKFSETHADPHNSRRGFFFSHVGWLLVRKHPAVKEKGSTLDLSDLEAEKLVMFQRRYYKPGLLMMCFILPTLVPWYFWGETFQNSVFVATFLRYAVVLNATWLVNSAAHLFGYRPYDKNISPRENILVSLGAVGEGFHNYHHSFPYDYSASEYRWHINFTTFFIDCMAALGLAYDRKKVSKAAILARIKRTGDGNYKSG
How it was run: as §1

Ole1 = molecular target: T3, Ole1 (Saccharomyces cerevisiae, UniProt P21147); experiment: Growth inhibition of yeast strain expressing Ole1 as sole desaturase; details: yeast strain expressing Ole1 as sole desaturase
T3 construct: expressed in transfected cells; host or cells: S. cerevisiae ole1Δ strain (W303 pdr1Δ pdr3Δ background), plasmid pRS316 with TDH3 promoter and CYC1 terminator
T3 sequence (P21147 1-510): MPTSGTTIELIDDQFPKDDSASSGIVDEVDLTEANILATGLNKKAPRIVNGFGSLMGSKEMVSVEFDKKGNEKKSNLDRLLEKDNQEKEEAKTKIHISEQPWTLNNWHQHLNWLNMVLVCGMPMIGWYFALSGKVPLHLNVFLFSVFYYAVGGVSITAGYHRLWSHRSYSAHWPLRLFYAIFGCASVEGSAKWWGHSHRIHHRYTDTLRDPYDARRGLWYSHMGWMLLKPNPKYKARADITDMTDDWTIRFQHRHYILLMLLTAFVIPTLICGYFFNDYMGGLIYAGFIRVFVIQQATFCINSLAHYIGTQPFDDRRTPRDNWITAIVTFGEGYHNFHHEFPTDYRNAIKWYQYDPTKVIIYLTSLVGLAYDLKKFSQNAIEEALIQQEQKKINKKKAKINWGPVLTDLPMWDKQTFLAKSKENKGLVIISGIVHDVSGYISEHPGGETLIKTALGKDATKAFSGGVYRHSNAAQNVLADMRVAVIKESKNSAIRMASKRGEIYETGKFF
Procedure: Strain oleΔ (yeast ole1 deletion mutant) was constructed by deleting OLE1 with NAT-MX6 in BY4741, amplifying the deletion cassette from the genomic DNA of the resulting strain with primers flanking the ORF by 1000 bp upstream and downstream, transforming the resulting deletion cassette into W303 pdr1Δ pdr3Δ, and plating transformants on YPD media containing G418 (200 μg/mL) and nourseothricin ([…]) with 0.01% TWEEN®-20 and 0.5 mM oleic and palmitoleic acids.
The coding sequence of yeast OLE1 was also cloned into this plasmid). These clones were then transformed into the ole1Δ strain and plated on CSM-Ura media (CSM lacking uracil) with 2% glucose (w/v) and independent colonies were isolated and amplified.
All compound profiling experiments were performed using the same basic protocol. Different genetic backgrounds (e.g., gene deletions) or conditions (e.g., addition of oleic and palmitoleic acid) were replaced as indicated below.
Yeast were cultured using standard techniques in complete synthetic media (CSM) and yeast nitrogen base supplemented with 2% (w/v) carbon source (glucose, raffinose, or galactose) to regulate the expression of the toxic disease protein. An initial starter culture was inoculated in 3 mL CSM-Glucose media and incubated overnight in a 30° C. shaker incubator (225 rpm). Saturated morning cultures were then diluted 1:20 in fresh CSM-Raffinose media and grown for 6 h to an OD600 (optical density) of ˜0.4-0.8 at 30° C. with shaking.
Compound administration was performed in two separate steps. First, 15 μL of CSM-Galactose (induces expression of toxic protein) was dispensed into clear 384 well assay plates using a MULTIDROP™ Combi reagent dispenser. […] The cultures described above were then diluted to a 2× concentration (0.03 and 0.08 for alpha-synuclein and ApoE, final ODsoo of 0.015 and 0.04) in CSM-Galactose. For wild-type and Ole1/SCD1/SCD5 plasmid-containing strains, the 2× cell density was 0.02. […] For 96-well assays (FIGS. 1A and 1B), compound dilutions in DMSO were generated in 96 well plates and 1 μL was manually pipetted into 96 well clear bottom assay plates.
For experiments using a plasmid-borne copy of Ole1, SCD1, or SCD5 (FIGS. 3B, 6, and 7), media lacking uracil (SX-Ura, where X is glucose, raffinose, or galactose), was used for all steps of the compound profiling protocol to ensure its maintenance throughout the assay.
After yeast delivery, assay plates were incubated under humidified conditions at 30° C. for 24 to 40 h. ApoE4 rescue experiments were stopped at 24 h, aSyn experiments at 40 h, Ole1 at 24 h, and SCD1/SCD5 at 40 h. The growth of yeast was monitored by reading the ODsoo of each well using a microplate reader (Perkin Elmer EnVision™).

| Structure (SMILES) | IC50 (SCD5) [µM] | SCD5 % Max Inhibition (SCD5) [%] | IC50 (SCD1) [µM] | SCD1 % Max Inhibition (SCD1) [%] | IC50 (Ole1) [µM] | OLE1 % Max Inhibition (Ole1) [%] |
| --- | --- | --- | --- | --- | --- | --- |
| Cc1nn(C)c2cc(-c3noc(C4CCN(C(=O)C5CC(=O)N(c6ccccc6C#N)C5)CC4)n3)ccc12 (stereo not drawn) [Compound 170] | > 45 | 85.13 | > 45 | 103.19 | 40.4 | 67.97 |
| CC(C)n1ncc2ccc(-c3noc(C4CCN(C(=O)CNC(=O)c5ccccc5)CC4)n3)cc21 [Compound 171] | > 45 | −0.14 | 40.4 | 74.21 | > 45 | 6.77 |
| CCOc1ccc(-c2noc(C3CCN(C(=O)[C@@H]4CN(c5ccccc5)C(=O)O4)CC3)n2)cc1OC [Compound 172] | 41.1 | 68.80 | > 45 | 89.39 | > 45 | 3.99 |
| Cc1nn(C)c2cc(-c3noc(C4CCN(C(=O)[C@H]5CN(c6ccccc6)C(=O)O5)CC4)n3)ccc12 [Compound 173] | 29.8 | 42.09 | > 45 | 78.07 | > 45 | 99.75 |
| CC(C)n1ncc2ccc(-c3noc(C4CCN(C(=O)C5CC(=O)N(c6ccccc6)C5)CC4)n3)cc21 (stereo not drawn) [Compound 174] | > 45 | 10.95 | > 45 | 79.07 | > 45 | 89.17 |
| CCOc1ccc(-c2noc(C3CCN(C(=O)CN4Cc5c(F)cccc5C4=O)CC3)n2)cc1OC [Compound 175] | > 45 | 77.96 | > 45 | 77.47 | > 45 | 3.00 |
| CCOc1ccc(-c2noc(C3CCN(C(=O)CN4Cc5cc(F)ccc5C4=O)CC3)n2)cc1OC [Compound 176] | > 45 | 83.50 | > 45 | 107.22 | > 45 | 3.62 |
| CCOc1ccc(-c2noc(C3CCN(C(=O)CN4Cc5ccc(F)cc5C4=O)CC3)n2)cc1OC [Compound 177] | > 45 | 86.13 | > 45 | 97.88 | > 45 | 40.70 |
| CCOc1ccc(-c2noc(C3CCN(C(=O)CN4Cc5cccc(F)c5C4=O)CC3)n2)cc1OC [Compound 178] | > 45 | 85.67 | > 45 | 114.07 | > 45 | 7.39 |
| Cc1ccc(N2CC(C(=O)N3CCC(c4nc(-c5ccc6c(C)nn(C)c6c5)no4)CC3)CC2=O)cn1 (stereo not drawn) [Compound 179] | > 45 | 85.02 | > 45 | 106.53 | 38.7 | 76.70 |
